Assay results published in patent US6987112B2, “Organic compound having cyano group and insecticides/miticides” (Nippon Soda Co., Ltd., priority 2000, dated 2006).
Where two headings read alike, the source gives them in different places.

Key:
[1] = tested on: susceptible Citrus red mite; assay: Effects on Citrus red mite (spray on adult females on Citrus leaf in Petri dish); type: in vivo; details: Panonychus citri, read-out: percentage mortality
Description: Eight adult females of susceptible Citrus red mite were inoculated on the surface of Citrus leaf placed in a glass Petridish. […] The solution was sprayed on the mites using a rotary spraying tower up to the fixed volume. […] The test was carried out in duplicate.

Cotton Aphids = assay: Efficacy on cotton aphids (spray on 1st instar nymphs on cucumber leaves); type: in vivo; details: 125 ppm spray, 25° C., 65% RH, five days later, duplicate

Compound: Cn1nc(C(F)(F)F)c(C(OC(=O)C(C)(C)C)=C(C#N)Oc2ccc(Cl)cc2)c1Cl [Compound No. 3-9, β-(5-chloro-1-methyl-3-trifluoromethylpyrazole-4-yl)-α-(4-chlorophenoxy)-β-pivaloyloxyacrylonitrile]
- mortality at 125 ppm ([1]; 125 ppm spray (wettable powder), adult females on Citrus leaf, 25° C., 65% RH, third day after spraying, duplicate): 100%
- mortality at 125 ppm (Cotton Aphids; 120 h, read-out: percentage mortality): 100%

Compound: Cc1cc(Cl)ccc1N=CN(C)C [chlordimeform]
- mortality at 125 ppm [1]: 13%

Compound: Cc1nc(N(C)C)nc(OC(=O)N(C)C)c1C [pyrimicarb]
- percentage mortality (Cotton Aphids): 9%
